One compound from patent US20230094404A1, “METHOD FOR PREPARATION OF HETEROCYCLICAMINE DERIVATIVES” (Daewoong Pharmaceutical Co., Ltd., priority 2020, published 2023) can be followed below.

One assay has as its target T1, BTK (Homo sapiens, UniProt Q06187).
T1 construct: purchased Promega Corporation
Description: ADP-Glo BTK Kinase enzyme system inhibitory activity. Format: biochemical. The conditions noted are these: ADP-Glo kit (Promega), ATP 10 uM, duplicate; read-out: inhibitory activity against BTK (BTK IC50). As for the experimental part:
(§1) Inhibitory activities against BTK and ITK were measured for the compound represented by Chemical Formula 1 prepared in the above Examples as follows.
The inhibitory activities against BTK were evaluated using ‘ADP-GIo™+BTK Kinase enzyme system’ kit (Promega Corporation). In a white 96-well plate, 10 ? of BTK enzyme prepared so as to have a final concentration of 10 ng/ ? was mixed with 5 ? of compounds having a final concentration of 1 uM in the case of evaluating a single concentration of compound and a concentration of 1000, 200, 40, 8, 1.6 and 0.32 nM in the case of IC50 evaluation, and then reacted at room temperature for 15 minutes. 5 ? of substrate and 5 ? of ATP prepared so as to have a final concentration of 10 uM were added to the plate on which reactions were completed, and then allowed to react at 30° C. for 1 hour. All wells of the plate on which reactions were completed were treated with 25 ? of ADP-Glo™ reagent and allowed to react at 30° C. for 40 minutes. […] For the plate on which all reactions were completed, luminescence was measured and the results were calculated. Evaluation was carried out in duplicate, and negative control and positive control were calculated depending on whether or not the enzyme was added without treatment of the compound. The IC50 was calculated based on the calculated values.
On the technique in general: ADP-Glo first removes unused ATP, then detects ADP through luciferase.

In the next assay the target is T2, ITK (Homo sapiens, UniProt Q08881).
T2 construct: purchased Promega Corporation
T2 sequence (Q08881 1-620): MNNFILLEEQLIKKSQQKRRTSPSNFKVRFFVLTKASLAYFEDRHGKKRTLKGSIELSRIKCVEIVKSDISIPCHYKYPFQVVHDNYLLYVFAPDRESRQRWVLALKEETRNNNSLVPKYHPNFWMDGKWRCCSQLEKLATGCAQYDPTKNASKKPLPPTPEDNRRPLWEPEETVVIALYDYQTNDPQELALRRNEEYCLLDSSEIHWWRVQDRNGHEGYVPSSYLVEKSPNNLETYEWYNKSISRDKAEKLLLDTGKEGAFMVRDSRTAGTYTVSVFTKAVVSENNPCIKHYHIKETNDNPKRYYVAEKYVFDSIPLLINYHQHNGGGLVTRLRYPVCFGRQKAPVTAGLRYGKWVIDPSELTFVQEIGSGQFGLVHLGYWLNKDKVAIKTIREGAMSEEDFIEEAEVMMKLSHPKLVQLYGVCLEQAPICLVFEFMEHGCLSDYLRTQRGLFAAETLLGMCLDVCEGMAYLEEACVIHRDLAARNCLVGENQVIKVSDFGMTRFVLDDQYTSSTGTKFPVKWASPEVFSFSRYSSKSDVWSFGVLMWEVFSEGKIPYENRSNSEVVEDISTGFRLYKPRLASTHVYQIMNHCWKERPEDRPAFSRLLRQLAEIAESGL
The assay can be described thus: ADP-Glo ITK Kinase enzyme system inhibitory activity. Format: biochemical. The settings on record: ADP-Glo kit (Promega), ATP 25 uM, duplicate; read-out: inhibitory activity against ITK (ITK IC50). As for the experimental part:
as §1
In addition, the inhibitory activity against ITK was evaluated using ‘ADP-GIo™+ITK Kinase enzyme system’ kit (Promega Corporation). In a white 96-well plate, 10 ? of ITK enzyme prepared so as to have a final concentration of 4 ng/ ? was mixed with 5 ? of compounds having a final concentration of 1 uM in the case of evaluating a single concentration of compound and a concentration of 1000, 200, 40, 8, 1.6 and 0.32 nM in the case of IC50 evaluation, and then reacted at room temperature for 15 minutes. To the plate on which reactions were completed, 5 ul of substrate and 5 ? of ATP prepared so as to have a final concentration of 25 uM were added and then allowed to react at 30° C. for 1 hour. All wells of the plate on which reactions were completed were treated with 25 ? of ADP-Glo™ reagent and then allowed to react at 30° C. for 40 minutes. […] For the plate on which all reactions were completed, luminescence was measured and the results were calculated. Evaluation was carried out in duplicate, and negative control and positive control were calculated depending on whether or not the enzyme was added without treatment of the compound. The IC50 was calculated based on the calculated values.

Each structure is given as a SMILES string. pIC50: −log10 of the molar value.

T1 sequence (Q06187 whole entry): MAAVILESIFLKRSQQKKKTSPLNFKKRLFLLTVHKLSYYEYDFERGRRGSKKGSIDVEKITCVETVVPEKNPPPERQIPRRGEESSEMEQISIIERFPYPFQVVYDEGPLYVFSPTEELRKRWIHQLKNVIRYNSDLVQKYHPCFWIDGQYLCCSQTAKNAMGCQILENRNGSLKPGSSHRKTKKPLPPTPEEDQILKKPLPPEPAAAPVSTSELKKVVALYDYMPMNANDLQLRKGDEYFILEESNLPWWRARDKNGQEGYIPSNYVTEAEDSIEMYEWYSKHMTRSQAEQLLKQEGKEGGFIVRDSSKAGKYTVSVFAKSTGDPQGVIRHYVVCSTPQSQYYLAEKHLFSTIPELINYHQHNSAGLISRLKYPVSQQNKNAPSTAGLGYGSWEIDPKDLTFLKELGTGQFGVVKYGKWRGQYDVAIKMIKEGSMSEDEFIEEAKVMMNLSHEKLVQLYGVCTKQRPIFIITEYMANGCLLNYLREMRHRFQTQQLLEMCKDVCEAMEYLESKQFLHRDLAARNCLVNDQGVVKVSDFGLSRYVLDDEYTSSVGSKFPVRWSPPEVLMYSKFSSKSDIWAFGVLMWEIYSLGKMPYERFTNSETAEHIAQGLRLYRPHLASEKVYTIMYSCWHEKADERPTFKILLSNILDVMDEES

Turning to `C=CC(=O)N1CCC[C@H](Nc2cc(CN3CCOCC3)cc(Nc3ncc(C)s3)n2)C1` [Chemical Formula 1, (S)-1-(3-((6-((5-methylthiazol-2-yl)amino)-4-(morpholinomethyl)pyridin-2-yl)amino)piperidin-1-yl)prop-2-en-1-one], the negative logarithm of the IC50 (pIC50) – broadly, the negative decadic logarithm of the IC50, by convention in mol/L – on BTK was 8.85 to 9.40; on ITK, 8.77 to 9.00.
